In ChEMBL document CHEMBL1759968, “Synthesis and biological evaluation of unsaturated keto and exomethylene D-arabinopyranonucleoside analogs: novel 5-fluorouracil analogs that target thymidylate synthase” (Eur J Med Chem, 2011):
Calls of active or inactive are those of the source. The rule behind the calls is not given here.

What was measured:
L1210 [1] = assay: Cytostatic activity against mouse L1210 cells in presence of 20 uM thymidine; format: functional, cell-based
Vaccinia virus = assay: Antiviral activity against Vaccinia virus infected in HEL cells assessed as inhibition of virus-induced cytopathic effect; format: functional, organism-based; conditions: Orthopoxvirus vaccinia
HeLa [2] = assay: Cytostatic activity against human HeLa cells in presence of 20 uM 2'-deoxyuridine; format: functional, cell-based
Human alphaherpesvirus 1 = assay: Antiviral activity against Herpes simplex virus type-1 infected in HEL cells assessed as inhibition of virus-induced cytopathic effect; format: functional, organism-based
L1210 [3] = assay: Cytostatic activity against mouse L1210 cells in presence of 20 uM 2'-deoxyuridine; format: functional, cell-based
Coxsackievirus B4 [4] = assay: Antiviral activity against Human coxsackievirus B4 infected in HeLa cells assessed as inhibition of virus-induced cytopathic effect; format: functional, organism-based
Coxsackievirus B4 [5] = assay: Antiviral activity against Human coxsackievirus B4 infected in Vero cells assessed as inhibition of virus-induced cytopathic effect; format: functional, organism-based
L1210 [6] = assay: Inhibition of DNA synthesis in mouse L1210 cells assessed as [methyl-3H]thymidine incorporation in to DNA by liquid scintillation counting; format: functional, cell-based
L1210 [7] = assay: Inhibition of DNA synthesis in mouse L1210 cells assessed as [6-3H]2'-deoxyuridine incorporation in to DNA preincubated for 24 hrs by liquid scintillation counting; format: functional, cell-based
FM3A [8] = assay: Cytostatic activity against mouse FM3A cells after 2 days by coulter counting analysis; format: functional, cell-based; conditions: 48 h
L1210 [9] = assay: Inhibition of RNA synthesis in mouse L1210 cells assessed as [5-3H]uridine incorporation in to RNA by liquid scintillation counting; format: functional, cell-based
Punta Toro virus = assay: Antiviral activity against Punta Toro virus infected in Vero cells assessed as inhibition of virus-induced cytopathic effect; format: functional, organism-based
L1210 [10] = assay: Inhibition of RNA synthesis in mouse L1210 cells assessed as [5-3H]uridine incorporation in to RNA preincubated for 24 hrs by liquid scintillation counting; format: functional, cell-based
HeLa [11] = assay: Cytostatic activity against human HeLa cells in presence of 500 uM uridine; format: functional, cell-based
Sindbis virus = assay: Antiviral activity against Sindbis virus infected in Vero cells assessed as inhibition of virus-induced cytopathic effect; format: functional, organism-based
HeLa [12] = assay: Cytostatic activity against human HeLa cells in presence of 20 uM thymidine; format: functional, cell-based
L1210 [13] = assay: Cytostatic activity against mouse L1210 cells in presence of 500 uM uracil; format: functional, cell-based
L1210 [14] = assay: Cytostatic activity against mouse L1210 cells after 2 days by coulter counting analysis; format: functional, cell-based; conditions: L1210, 48 h
Human alphaherpesvirus 2 = assay: Antiviral activity against Herpes simplex virus type-2 infected in HEL cells assessed as inhibition of virus-induced cytopathic effect; format: functional, organism-based
[15] = tested on: Respiratory syncytial virus; assay: Antiviral activity against Respiratory syncytial virus infected in HeLa cells assessed as inhibition of virus-induced cytopathic effect; format: functional, organism-based
CCRF-CEM [16] = assay: Cytostatic activity against human CEM cells after 3 days by coulter counting analysis; format: functional, cell-based; conditions: 72 h
HeLa [17] = assay: Cytostatic activity against human HeLa cells after 3 days by coulter counting analysis; format: functional, cell-based; conditions: 72 h
Human respirovirus 3 = assay: Antiviral activity against Human parainfluenza virus 3 infected in Vero cells assessed as inhibition of virus-induced cytopathic effect; format: functional, organism-based
L1210 [18] = assay: Inhibition of DNA synthesis in mouse L1210 cells assessed as [methyl-3H]thymidine incorporation in to DNA preincubated for 24 hrs by liquid scintillation counting; format: functional, cell-based
HeLa [19] = assay: Cytostatic activity against human HeLa cells in presence of 500 uM uracil; format: functional, cell-based
[20] = tested on: Vesicular stomatitis virus; assay: Antiviral activity against Vesicular stomatitis virus infected in HEL cells assessed as inhibition of virus-induced cytopathic effect; format: functional, organism-based
[21] = tested on: Mammalian orthoreovirus 1; assay: Antiviral activity against Reovirus 1 infected in Vero cells assessed as inhibition of virus-induced cytopathic effect; format: functional, organism-based
[22] = tested on: Vesicular stomatitis virus; assay: Antiviral activity against Vesicular stomatitis virus infected in HeLa cells assessed as inhibition of virus-induced cytopathic effect; format: functional, organism-based
L1210 [23] = assay: Cytostatic activity against mouse L1210 cells in presence of 500 uM uridine; format: functional, cell-based
L1210 [24] = assay: Inhibition of DNA synthesis in mouse L1210 cells assessed as [6-3H]2'-deoxyuridine incorporation in to DNA by liquid scintillation counting; format: functional, cell-based
[25] = Stability of compound in phosphate buffer at pH 6.2 after 60 mins; format: physicochemical; conditions: pH 6.2, 1 h
Thymidylate synthase [26] = target: T1, Thymidylate synthase (Mus musculus, UniProt P07607); assay: Inhibition of thymidylate synthase in mouse L1210 cells assessed as inhibition of tritium release from [5-3H]deoxycytidine after preincubation for 15 mins by liquid scintillation counting; format: cell-based
T1 sequence (P07607 whole entry): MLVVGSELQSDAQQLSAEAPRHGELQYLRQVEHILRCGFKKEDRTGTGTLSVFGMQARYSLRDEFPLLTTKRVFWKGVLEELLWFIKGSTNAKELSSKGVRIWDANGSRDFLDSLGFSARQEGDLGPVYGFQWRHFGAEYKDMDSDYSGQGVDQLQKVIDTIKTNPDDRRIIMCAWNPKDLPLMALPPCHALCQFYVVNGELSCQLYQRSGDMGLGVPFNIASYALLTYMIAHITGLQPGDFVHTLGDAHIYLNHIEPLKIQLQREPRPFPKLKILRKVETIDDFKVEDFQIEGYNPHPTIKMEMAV

Thymidylate synthase [27] = target: T1, Thymidylate synthase; assay: Inhibition of thymidylate synthase in mouse L1210 cells assessed as inhibition of tritium release from [5-3H]deoxyuridine after preincubation for 4 hrs by liquid scintillation counting; format: cell-based
Thymidylate synthase [28] = target: T1, Thymidylate synthase; assay: Inhibition of thymidylate synthase in mouse L1210 cells assessed as inhibition of tritium release from [5-3H]deoxyuridine after preincubation for 15 mins by liquid scintillation counting; format: cell-based
Thymidylate synthase [29] = target: T1, Thymidylate synthase; assay: Inhibition of thymidylate synthase in mouse L1210 cells assessed as inhibition of tritium release from [5-3H]deoxyuridine after preincubation for 24 hrs by liquid scintillation counting; format: cell-based
Thymidylate synthase [30] = target: T1, Thymidylate synthase; assay: Inhibition of thymidylate synthase in mouse L1210 cells assessed as inhibition of tritium release from [5-3H]deoxycytidine after preincubation for 4 hrs by liquid scintillation counting; format: cell-based
Thymidylate synthase [31] = target: T1, Thymidylate synthase; assay: Inhibition of thymidylate synthase in mouse L1210 cells assessed as inhibition of tritium release from [5-3H]deoxycytidine after preincubation for 24 hrs by liquid scintillation counting; format: cell-based
[32] = Stability of compound in phosphate buffered saline up to 3 days; format: physicochemical; conditions: buffer, 72 h
CCRF-CEM [33] = assay: Ratio of compound IC50 to 5-flurouracil IC50 for human CEM cells; format: functional
L1210 [34] = assay: Ratio of compound IC50 to 5-flurouracil IC50 for mouse L1210 cells; format: functional
HeLa [35] = assay: Ratio of compound IC50 to 5-flurouracil IC50 for human HeLa cells; format: functional
FM3A [36] = assay: Ratio of compound IC50 to 5-flurouracil IC50 for mouse FM3A cells; format: functional

| Structure (SMILES) | IC50 (L1210 [1]) | Activity (Vaccinia virus) | IC50 (HeLa [2]) | Activity (Human alphaherpesvirus 1) | IC50 (L1210 [3]) | Activity (Coxsackievirus B4 [4]) | Activity (Coxsackievirus B4 [5]) | IC50 (L1210 [6]) | IC50 (L1210 [7]) | IC50 (FM3A [8]) | IC50 (L1210 [9]) | Activity (Punta Toro virus) | IC50 (L1210 [10]) | IC50 (HeLa [11]) | Activity (Sindbis virus) | IC50 (HeLa [12]) | IC50 (L1210 [13]) | Activity (Human alphaherpesvirus 2) | Activity [15] | IC50 (HeLa [17]) | other results |
| --- | --- | --- | --- | --- | --- | --- | --- | --- | --- | --- | --- | --- | --- | --- | --- | --- | --- | --- | --- | --- | --- |
| C=C1C=CCO[C@@H]1n1cc(F)c(O)nc1=O | 182 µM | inactive | 1400 nM | inactive | 18 µM | inactive | inactive | > 500 µM | 7.9 µM | 2400 nM | > 100 µM | inactive | 84 µM | 8 µM | inactive | 34 µM | 5.8 µM | inactive | inactive | 3500 nM | IC50 (L1210 [14]): 8 µM; IC50 (CCRF-CEM [16]): 85 µM; Activity (Human respirovirus 3): inactive; IC50 (L1210 [18]): > 500 µM; IC50 (HeLa [19]): 18 µM; Activity [20]: inactive; Activity [21]: inactive; Activity [22]: inactive; IC50 (L1210 [23]): 5.7 µM; IC50 (L1210 [24]): 37 µM |
| C=C1[C@H](O)[C@H](O)CO[C@@H]1n1cc(F)c(O)nc1=O | > 500 µM | inactive | 12000 nM | inactive | 66 µM | inactive | inactive | > 500 µM | 18 µM | 1900 nM | > 100 µM | inactive | 282 µM | 79 µM | inactive | 146 µM | 18 µM | inactive | inactive | 18000 nM | IC50 (L1210 [14]): 21 µM; IC50 (CCRF-CEM [16]): 97 µM; Activity (Human respirovirus 3): inactive; IC50 (L1210 [18]): > 500 µM; IC50 (HeLa [19]): 58 µM; Activity [20]: inactive; Activity [21]: inactive; Activity [22]: inactive; IC50 (L1210 [23]): 18 µM; IC50 (L1210 [24]): 85 µM |
| C=C1[C@H](O)[C@H](O)CO[C@@H]1n1cc(F)c(=O)[nH]c1=O |  |  |  |  |  |  |  |  |  |  |  |  |  |  |  |  |  |  |  |  | Stability [25]: Stable; IC50 (Thymidylate synthase [26]): 8.2 µM; IC50 (Thymidylate synthase [27]): 3600 nM; IC50 (Thymidylate synthase [28]): ≥ 10 µM; IC50 (Thymidylate synthase [29]): 570 nM; IC50 (Thymidylate synthase [30]): 5.5 µM; IC50 (Thymidylate synthase [31]): 5400 nM; Stability [32]: Stable |
| O=C1C=CCO[C@@H]1n1cc(F)c(=O)[nH]c1=O |  |  |  |  |  |  |  |  |  |  |  |  |  |  |  |  |  |  |  |  | IC50 (Thymidylate synthase [26]): > 10 µM; IC50 (Thymidylate synthase [27]): 830 nM; IC50 (Thymidylate synthase [28]): 8.1 µM; IC50 (Thymidylate synthase [29]): 63 nM; IC50 (Thymidylate synthase [30]): 0.95 µM; IC50 (Thymidylate synthase [31]): 71 nM; Stability [32]: Unstable |
| O=c1[nH]cc(F)c(=O)[nH]1 [FLUOROURACIL] | 21 µM | inactive | 180 nM | inactive | 1.3 µM | inactive | inactive | > 500 µM | 0.37 µM | 180 nM | 51 µM | inactive | 4.9 µM | 1.1 µM | inactive | 1.5 µM | 0.47 µM | inactive | inactive | 450 nM | IC50 (Thymidylate synthase [26]): ≥ 10 µM; IC50 (Thymidylate synthase [27]): 220 nM; IC50 (Thymidylate synthase [28]): 7 µM; Activity (Human respirovirus 3): inactive; IC50 (L1210 [18]): > 500 µM; IC50 (HeLa [19]): 1 µM; IC50 (Thymidylate synthase [29]): 20 nM; Activity [20]: inactive; IC50 (Thymidylate synthase [30]): 0.6 µM; Activity [21]: inactive; Activity [22]: inactive; IC50 (Thymidylate synthase [31]): 60 nM; IC50 (L1210 [23]): 0.62 µM; IC50 (L1210 [24]): 0.97 µM |
| C=C1C=CCO[C@@H]1n1cc(F)c(=O)[nH]c1=O |  |  |  |  |  |  |  |  |  |  |  |  |  |  |  |  |  |  |  |  | Stability [25]: Stable; IC50 (Thymidylate synthase [26]): > 10 µM; IC50 (Thymidylate synthase [27]): 8700 nM; IC50 (Thymidylate synthase [28]): > 10 µM; IC50 (Thymidylate synthase [29]): 430 nM; IC50 (Thymidylate synthase [30]): 9.3 µM; IC50 (Thymidylate synthase [31]): 2200 nM; Stability [32]: Stable |
| O=C1C=CCO[C@@H]1n1cc(F)c(O)nc1=O | 75 µM | inactive | 620 nM | inactive | 3.5 µM | inactive | inactive | 349 µM | 2.5 µM | 230 nM | 63 µM | inactive | 16 µM | 5.3 µM | inactive | 7.1 µM | 1 µM | inactive | inactive | 970 nM | Ratio (CCRF-CEM [33]): 1.5; Ratio (L1210 [34]): 1.5; IC50 (L1210 [14]): 1.3 µM; Ratio (HeLa [35]): 1.5; Ratio (FM3A [36]): 1.5; IC50 (CCRF-CEM [16]): 17 µM; Activity (Human respirovirus 3): inactive; IC50 (L1210 [18]): 294 µM; IC50 (HeLa [19]): 8 µM; Activity [20]: inactive; Activity [21]: inactive; Activity [22]: inactive; IC50 (L1210 [23]): 2 µM; IC50 (L1210 [24]): 3.1 µM |
